According to patent US9758492B2, “IDO inhibitors” (Bristol-Myers Squibb Company, priority 2013, dated 2017):

Target: IDO (Homo sapiens, UniProt P14902)
Assay: LLE_IDO_ABS_DR (IDO assay)

Chain of IDO (P14902 whole entry): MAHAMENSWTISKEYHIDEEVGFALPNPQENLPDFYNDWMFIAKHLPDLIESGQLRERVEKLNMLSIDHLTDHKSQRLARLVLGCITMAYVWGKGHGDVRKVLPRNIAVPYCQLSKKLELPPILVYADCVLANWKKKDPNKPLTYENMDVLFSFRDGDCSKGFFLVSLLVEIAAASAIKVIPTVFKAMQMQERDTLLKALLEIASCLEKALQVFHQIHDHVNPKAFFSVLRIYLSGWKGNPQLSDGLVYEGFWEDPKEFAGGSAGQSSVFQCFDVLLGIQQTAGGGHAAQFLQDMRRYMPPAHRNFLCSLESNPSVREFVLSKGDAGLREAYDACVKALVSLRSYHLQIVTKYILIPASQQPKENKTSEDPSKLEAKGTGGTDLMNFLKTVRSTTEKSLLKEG

Row | IC50 [nM] | SMILES
1 | 140 | CC(C)CN(CC(C)C)c1ccc(-c2ccccc2-c2nnn[nH]2)cc1NC(=O)Nc1ccc(C(F)(F)F)cc1 [Example 249]
2 | 210 | Cc1ccc(NC(=O)Nc2cc(-c3ccccc3C(=O)O)ccc2N(CCC(F)(F)F)CC(C)C)cc1 [Example 198, 4′-(isobutyl(3,3,3-trifluoropropyl)amino)-3′-(3-(p-tolyl)ureido)-[1,1′-biphenyl]-2-carboxylic acid]
3 | 5.68 | CCCN(c1ccc(-c2ccccc2-c2nnn[nH]2)cc1NC(=O)Nc1ccccc1F)C1CCCC1 [Example 170, 1-(4-(cyclopentyl(propyl)amino)-2′-(1H-tetrazol-5-yl)biphenyl-3-yl)-3-(2-fluorophenyl)urea]
4 | 90 | Cc1ccc(NC(=O)Nc2cc(-c3ccccc3-c3nnn[nH]3)ccc2N(CCC(F)(F)F)Cc2ccc(F)cc2)cc1 [Example 325, 1-(4-((4-fluorobenzyl)(3,3,3-trifluoropropyl)amino)-2′-(1H-tetrazol-5-yl)-[1,1′-biphenyl]-3-yl)-3-(p-tolyl)urea]
5 | 170 | O=C(Nc1cc(-c2ccccc2-c2nnn[nH]2)ccc1N(CCC(F)(F)F)Cc1ccc(OC(F)(F)F)cc1)Nc1ccccc1C(F)(F)F [Example 342, 1-(2′-(1H-tetrazol-5-yl)-4-((4-(trifluoromethoxy)benzyl)(3,3,3-trifluoropropyl)amino)-[1,1′-biphenyl]-3-yl)-3-(2-(trifluoromethyl)phenyl)urea]
6 | 40 | CC(C)CN(c1ccc(-c2cc(F)ccc2C(=O)O)cc1NC(=O)Nc1ccccc1F)C(C)C [Example 155, 5-fluoro-3′-(3-(2-fluorophenyl)ureido)-4′-(isobutyl(isopropyl)amino)biphenyl-2-carboxylic acid]
7 | 2230 | CC(C)CN(CC(C)C)c1ccc(-c2ccccc2-c2nn[nH]n2)cc1NC(=O)NC(C)(C)Cc1ccc(F)cc1 [Example 240, 1-(4-(diisobutylamino)-2′-(2H-tetrazol-5-yl)-[1,1′-biphenyl]-3-yl)-3-(1-(4-fluorophenyl)-2-methylpropan-2-yl)urea]
8 | 90 | CC(C)CN(CC(C)C)c1ccc(-c2ccccc2-c2nnn[nH]2)cc1NC(=O)Nc1cc(F)cc(Cl)c1 [Example 251, 1-(3-chloro-5-fluorophenyl)-3-(4-(diisobutylamino)-2′-(1H-tetrazol-5-yl)-[1,1′-biphenyl]-3-yl)urea]
9 | 10 | CC(C)CN(c1ccc(-c2ccccc2C(=O)O)cc1NC(=O)Nc1ccc(C(F)(F)F)cc1)C1CCC(F)(F)CC1 [Example 513]
10 | 720 | Cc1ccc(NC(=O)Nc2cc(-c3cc(F)ccc3C(=O)O)ccc2N(Cc2ccc(Cl)cc2)C2CCCCC2)cc1 [Example 469]
11 | 1030 | CC(C)CN(c1ccc(-c2cc(F)ccc2C(=O)O)cc1NC(=O)Nc1ccccc1C(F)(F)F)C1CCCCC1 [Example 163, 4′-(cyclohexyl (isobutyl)amino)-5-fluoro-3′-(3-(2-(trifluoromethyl)phenyl)ureido) biphenyl-2-carboxylic acid]
12 | 50 | Cc1ccc(NC(=O)Nc2cc(-c3ccccc3C(=O)O)ccc2N(CCC2CC2)CC(C)C)cc1 [Example 132, 4′-((2-cyclopropylethyl) (isobutyl)amino)-3′-(3-p-tolylureido) biphenyl-2-carboxylic acid]
13 | 230 | Cc1ccc(NC(=O)Nc2cc(-c3ccccc3C(=O)O)ccc2N(C)CC(C)C)cc1 [Example 180, 4′-(isobutyl(methyl)amino)-3′-(3-(p-tolyl)ureido)-[1,1′-biphenyl]-2-carboxylic acid]
14 | 2.52 | Cc1ccc(NC(=O)Nc2cc(-c3ccccc3C(=O)O)c(F)cc2N(CC(C)C)C2CCCCC2)cc1 [Example 225]
15 | 270 | Cc1ccc(NC(=O)Nc2cc(-c3cc(F)ccc3C(=O)O)ccc2N(C)CC(C)C)cc1 [Example 181, 5-fluoro-4′-(isobutyl(methyl)amino)-3′-(3-(p-tolyl)ureido)-[1,1′-biphenyl]-2-carboxylic acid]
16 | 410 | O=C(Nc1ccc(OC(F)(F)F)cc1)Nc1cc(-c2ccccc2-c2nnn[nH]2)ccc1N(CCC(F)(F)F)Cc1ccc(Cl)cc1Cl [Example 337, 1-(4-((2,4-dichlorobenzyl)(3,3,3-trifluoropropyl)amino)-2′-(1H-tetrazol-5-yl)-[1,1′-biphenyl]-3-yl)-3-(4-(trifluoromethoxy)phenyl)urea]
17 | 4.72 | C#CCOc1cccc(NC(=O)Nc2cc(-c3ccccc3-c3nnn[nH]3)ccc2N(CC(C)C)CC(C)C)c1 [Example 242, 1-(4-(diisobutylamino)-2′-(1H-tetrazol-5-yl)-[1,1′-biphenyl]-3-yl)-3-(3-(prop-2-yn-1-yloxy)phenyl)urea]
18 | 5070 | CNC(=O)c1ccccc1NC(=O)Nc1cc(-c2ccccc2-c2nnn[nH]2)ccc1N(CC(C)C)CC(C)C [Example 248, 2-(3-(4-(diisobutylamino)-2′-(1H-tetrazol-5-yl)-[1,1′-biphenyl]-3-yl)ureido)-N-methylbenzamide]
19 | 10 | Cc1ccc(NC(=O)Nc2cc(-c3ccccc3C(=O)O)ccc2N(CC(C)C)C2CCCC2)cc1 [Example 172, 4′-(cyclopentyl(isobutyl)amino)-3′-(3-p-tolylureido)biphenyl-2-carboxylic acid]
20 | 5.24 | CC(C)CN(CC(C)C)c1ccc(-c2ccccc2-c2nnn[nH]2)cc1NC(=O)Nc1ccc(F)cc1F [Example 137, 1-(2,4-difluorophenyl)-3-(4-(diisobutylamino)-2′-(1H-tetrazol-5-yl)biphenyl-3-yl)urea]
21 | 120 | O=C(Nc1ccc(OC(F)(F)F)cc1)Nc1cc(-c2ccccc2-c2nnn[nH]2)ccc1N1CC2CC1CN2Cc1ccccc1 (stereo not shown) [Example 318, 1-(4-(5-benzyl-2,5-diazabicyclo[2.2.1]heptan-2-yl)-2′-(1H-tetrazol-5-yl)-[1,1′-biphenyl]-3-yl)-3-(4-(trifluoromethoxy)phenyl)urea]

The next lines start with the compound.

Row | SMILES | IC50 [nM]
22 | COc1ccc(-c2ccc(N(C)C3CCCCCC3)c(NC(=O)Nc3ccc(C)cc3)c2)cc1C(=O)O [Example 78, 4′-(cycloheptyl(methyl)amino)-4-methoxy-3′-(3-p-tolylureido)biphenyl-3-carboxylic acid] | 1920
23 | C#CCN(CC(C)C)c1ccc(-c2ccccc2-c2nnn[nH]2)cc1NC(=O)Nc1ccc(C)cc1 [Example 24, 1-(4-(Isobutyl(prop-2-yn-1-yl)amino)-2′-(1H-tetrazol-5-yl)-[1,1′-biphenyl]-3-yl)-3-(p-tolyl)urea] | 10
24 | Cc1ccc(NC(=O)Nc2cc(-c3ccccc3-c3nnn[nH]3)ccc2N(CC2CC2)C2CCCCC2)cc1 [Example 82, 1-(4-(cyclohexyl (cyclopropylmethyl)amino)-2′-(1H-tetrazol-5-yl)biphenyl-3-yl)-3-p-tolylurea] | 3.8
25 | CCCCN(CCCC)c1ccc(-c2ccccc2-c2nnn[nH]2)cc1NC(=O)Nc1ccc(C)cc1 [Example 88, 1-(4-(dibutylamino)-2′-(1H-tetrazol-5-yl)biphenyl-3-yl)-3-p-tolylurea] | 9.82
26 | Cc1ccc(NC(=O)Nc2cc(-c3cc(F)ccc3C(=O)O)ccc2N(CCC(F)(F)F)Cc2cccc(Cl)c2)cc1 [Example 12, 4′-((3-Chlorobenzyl)(3,3,3-trifluoropropyl)amino)-5-fluoro-3′-(3-(p-tolyl)ureido)-[1,1′-biphenyl]-2-carboxylic acid] | 220
27 | CCN(c1ccc(-c2ccc(OC)c(C(=O)O)c2)cc1NC(=O)Nc1ccc(C)cc1)C1CCCC1 [Example 77, 4′-(cyclopentyl(ethyl)amino)-4-methoxy-3′-(3-p-tolylureido) biphenyl-3-carboxylic acid] | 3260
28 | Cc1ccc(NC(=O)Nc2cc(-c3cccc(C(=O)O)c3)ccc2N(CC(C)C)CC2CCC2)cc1 [Example 97, 4′-((cyclobutylmethyl) (isobutyl)amino)-3′-(3-p-tolylureido)biphenyl-3-carboxylic acid] | 4640
29 | CCCN(c1ccc(-c2cc(F)ccc2C(=O)O)cc1NC(=O)Nc1ccc(C)cc1)C1CCCCC1 [Example 87, 4′-(cyclohexyl (propyl)amino)-5-fluoro-3′-(3-p-tolylureido) biphenyl-2-carboxylic acid] | 3.68
30 | COc1ccc(-c2ccc(N(CCC(F)(F)F)CC3CC3)c(NC(=O)Nc3ccc(C)cc3)c2)cc1C(=O)O [Example 65, 4′-((cyclopropylmethyl) (3,3,3-trifluoropropyl)amino)-4-methoxy-3′-(3-p-tolylureido) biphenyl-3-carboxylic acid] | 3700
31 | CC(C)CN(c1ccc(-c2cc(F)ccc2C(=O)O)cc1NC(=O)Nc1ccccc1F)C1CCCCC1 [Example 125, 4′-(cyclohexyl(isobutyl)amino)-5-fluoro-3′-(3-(2-fluorophenyl)ureido) biphenyl-2-carboxylic acid] | 5.92
32 | CCN(c1ccc(-c2ccccc2-c2nnn[nH]2)cc1NC(=O)Nc1ccc(C)cc1)C1CCCC1 [Example 75, 1-(4-(cyclopentyl(ethyl)amino)-2′-(1H-tetrazol-5-yl)biphenyl-3-yl)-3-p-tolylurea] | 3.24
33 | Cc1ccc(NC(=O)Nc2cc(-c3ccccc3C(=O)O)ccc2N(CC(C)C)CC(C)CC(F)(F)F)cc1 (stereo not shown) [Example 28, 4′-(Isobutyl(4,4,4-trifluoro-2-methylbutyl)amino)-3′-(3-(p-tolyl)ureido)-[1,1′-biphenyl]-2-carboxylic acid] | 10
34 | Cc1ccc(NC(=O)Nc2cc(-c3ccccc3NS(=O)(=O)CC(F)(F)F)ccc2N(CC(C)C)CC(C)C)cc1 [Example 84, N-(4′-(diisobutylamino)-3′-(3-p-tolylureido)biphenyl-2-yl)-2,2,2-trifluoroethane-sulfonamide] | 2110
35 | Cc1ccc(NC(=O)Nc2cc(-c3cc(F)ccc3C(=O)O)ccc2N(CCC(F)(F)F)Cc2ccccc2Cl)cc1 [Example 18, 4′-((2-Chlorobenzyl)(3,3,3-trifluoropropyl)amino)-5-fluoro-3′-(3-(p-tolyl)ureido)-[1,1′-biphenyl]-2-carboxylic acid] | 630
36 | Cc1ccc(NC(=O)Nc2cc(-c3cc(F)ccc3C(=O)O)ccc2N(CC(C)C)C2CCCCC2)cc1 [Example 124, 4′-(cyclohexyl(isobutyl)amino)-5-fluoro-3′-(3-p-tolylureido)biphenyl-2-carboxylic acid] | 5.18
37 | Cc1ccc(NC(=O)Nc2cc(-c3ccccc3C(=O)O)ccc2N(CC(C)C)CC2CCC2)cc1 [Example 100, 4′-((cyclobutylmethyl) (isobutyl)amino)-3′-(3-p-tolylureido)biphenyl-2-carboxylic acid] | 90
